Consider eight compounds from US8367732B2, “Di-fluoro containing compounds as cysteine protease inhibitors” (Virobay, Inc., priority 2006, dated 2013).

Holding throughout (format): biochemical
Test [1] concerns the target Human cathepsin S (Homo sapiens, UniProt P25774). Put plainly: Cathepsin S Assay. As to conditions: apparent inhibition constant; substrate Z-Val-Val-Arg-AMC; pH 6.5. As to the method: (§1) Solutions of test compounds in varying concentrations were prepared in 10 μL of dimethyl sulfoxide (DMSO) and then diluted into assay buffer (40 μL, comprising: MES, 50 mM (pH 6.5); EDTA, 2.5 mM; and NaCl, 100 mM); β-mercaptoethanol, 2.5 mM; and BSA, 0.00%. Human cathepsin S (0.05 pMoles in 25 μL of assay buffer) was added to the dilutions. The assay solutions were mixed for 5-10 seconds on a shaker plate, covered and incubated for 30 min at room temperature. Z-Val-Val-Arg-AMC (4 nMoles in 25 μL of assay buffer containing 10% DMSO) was added to the assay solutions and hydrolysis was followed spectrophotometrically (at λ 460 nm) for 5 min. Apparent inhibition constants (Ki) were calculated from the enzyme progress curves using standard mathematical models.

In test [2] the target is T1, Human cathepsin F (Homo sapiens, UniProt Q9UBX1).
T1 sequence (Q9UBX1 271-484): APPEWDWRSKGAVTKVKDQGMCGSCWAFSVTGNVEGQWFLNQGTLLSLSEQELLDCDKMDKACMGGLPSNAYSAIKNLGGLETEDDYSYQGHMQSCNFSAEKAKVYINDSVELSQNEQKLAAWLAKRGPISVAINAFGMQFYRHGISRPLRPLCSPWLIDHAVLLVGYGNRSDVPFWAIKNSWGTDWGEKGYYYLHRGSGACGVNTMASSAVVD
Briefly: Cathepsin F Assay. As to conditions: apparent inhibition constant; substrate Z-Phe-Arg-AMC; pH 6.5. As to the method: as §1, with “DTT,” for “β-mercaptoethanol,”, “0.01%.” for “0.00%.”, “F (0.1” for “S (0.05”, “Z-Phe-Arg-AMC (2” for “Z-Val-Val-Arg-AMC (4”

The target of test [3] is Human cathepsin L (Homo sapiens, UniProt P07711). Put plainly: Cathepsin L Assay. As to conditions: apparent inhibition constant; substrate Z-Phe-Arg-AMC; pH 5.5. As to the method: (§2) Solutions of test compounds in varying concentrations were prepared in 10 μL of dimethyl sulfoxide (DMSO) and then diluted into assay buffer (40 μL, comprising: MES, 50 mM (pH 5.5); EDTA, 2.5 mM; and DTT, 2.5 mM). Human cathepsin L (0.05 pMoles in 25 μL of assay buffer) was added to the dilutions. The assay solutions were mixed for 5-10 seconds on a shaker plate, covered and incubated for 30 min at room temperature. Z-Phe-Arg-AMC (1 nMoles in 25 μL of assay buffer) was added to the assay solutions and hydrolysis was followed spectrophotometrically at (λ 460 nm) for 5 min. Apparent inhibition constants (Ki) were calculated from the enzyme progress curves using standard mathematical models.
Chain of Human cathepsin L (P07711 114-333): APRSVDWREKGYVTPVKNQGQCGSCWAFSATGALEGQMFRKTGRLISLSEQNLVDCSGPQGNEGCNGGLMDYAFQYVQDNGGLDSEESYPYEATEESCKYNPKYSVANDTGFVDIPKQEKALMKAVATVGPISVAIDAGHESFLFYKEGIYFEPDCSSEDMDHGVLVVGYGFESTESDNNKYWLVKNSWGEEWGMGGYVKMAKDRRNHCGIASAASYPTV

Test [4] concerns the target Human cathepsin B (Homo sapiens, UniProt P07858). Briefly: Cathepsin B Assay. As to conditions: apparent inhibition constant; substrate Z-FR-AMC; pH 6. As to the method:
as §2, with “N,N-bis(2-hydroxyethyl)-2-aminoethanesulfonic acid (BES),” for “MES,”, “6); polyoxyethylenesorbitan monolaurate, 0.05%;” for “5.5); EDTA, 2.5 mM;”, “dithiothreitol (DTT),” for “DTT,”, “B (0.025” for “L (0.05”, “Z-FR-AMC (20” for “Z-Phe-Arg-AMC (1”

Chain of Human cathepsin S (P25774 115-331): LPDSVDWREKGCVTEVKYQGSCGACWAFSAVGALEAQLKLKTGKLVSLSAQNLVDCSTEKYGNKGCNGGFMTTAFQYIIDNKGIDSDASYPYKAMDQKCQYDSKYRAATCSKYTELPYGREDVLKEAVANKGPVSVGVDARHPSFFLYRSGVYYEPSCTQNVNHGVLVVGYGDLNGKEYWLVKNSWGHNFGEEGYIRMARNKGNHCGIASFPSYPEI

Consider `N#CC1(NC(=O)[C@H](CC(F)(F)Cc2ccccc2)N[C@@H](c2ccc(F)cc2)C(F)(F)F)CC1`, for which the Ki in test [1] was less than 20 nM; in test [2], 500 to 5000 nM; in test [3], 21 to 500 nM; in test [4], 21 to 500 nM.

For `N#CC1(NC(=O)[C@H](CC(F)(F)c2ccccc2)N[C@@H](c2ccc(F)cc2)C(F)(F)F)CC1`, the Ki was less than 20 nM in test [1], greater than 5000 nM in test [2], 500 to 5000 nM in test [3] and greater than 5000 nM in test [4].

Take `CC(C)CC(F)(F)C[C@H](N[C@@H](c1ccc(F)cc1)C(F)(F)F)C(=O)NC1(C#N)CC1`: the Ki in test [1] was less than 20 nM; in test [2], 21 to 500 nM; in test [3] it was 21 to 500 nM; in test [4] it was 21 to 500 nM.

As to `N#CC1(NC(=O)[C@H](CC(F)(F)CC2CC2)N[C@@H](c2ccc(F)cc2)C(F)(F)F)CC1`, the Ki in test [1] was less than 20 nM; in test [2], 21 to 500 nM; in test [3] it was 21 to 500 nM; in test [4], 21 to 500 nM.

Regarding `CCC(F)(F)C[C@H](N[C@@H](c1ccc(F)cc1)C(F)(F)F)C(=O)NC1(C#N)CC1`, the Ki is less than 20 nM in test [1], 21 to 500 nM in test [2], 21 to 500 nM in test [3] and 21 to 500 nM in test [4].

In the case of `CCCC(F)(F)C[C@H](N[C@@H](c1ccc(F)cc1)C(F)(F)F)C(=O)NC1(C#N)CC1`, the Ki was less than 20 nM in test [1], 21 to 500 nM in test [2], 21 to 500 nM in test [3] and 21 to 500 nM in test [4].

Consider `CCCCC(F)(F)C[C@H](N[C@@H](c1ccc(F)cc1)C(F)(F)F)C(=O)NC1(C#N)CC1`, for which the Ki in test [1] was less than 20 nM.

As for `CCC(F)(F)CC[C@H](N[C@@H](c1ccc(F)cc1)C(F)(F)F)C(=O)NC1(C#N)CC1`, the Ki in test [1] is less than 20 nM.
